The target in the experiment is T1, 5-HT3A receptor D238A (Mus musculus, UniProt P23979, D265A).
T1 sequence (P23979 24-489 D265A): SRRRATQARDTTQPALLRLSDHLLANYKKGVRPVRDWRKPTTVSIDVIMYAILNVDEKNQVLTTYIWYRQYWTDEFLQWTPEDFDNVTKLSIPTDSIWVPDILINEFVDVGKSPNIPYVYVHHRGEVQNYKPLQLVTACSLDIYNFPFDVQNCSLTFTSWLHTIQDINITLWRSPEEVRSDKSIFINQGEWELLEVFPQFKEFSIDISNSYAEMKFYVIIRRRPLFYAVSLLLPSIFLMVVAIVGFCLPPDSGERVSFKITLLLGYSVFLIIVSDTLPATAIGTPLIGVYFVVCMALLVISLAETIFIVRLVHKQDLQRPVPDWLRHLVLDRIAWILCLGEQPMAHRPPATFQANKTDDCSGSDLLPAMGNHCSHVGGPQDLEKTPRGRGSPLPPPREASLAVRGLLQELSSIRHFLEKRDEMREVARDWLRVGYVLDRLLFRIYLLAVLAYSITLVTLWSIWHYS
Description: Two-electrode voltage clamp, 5-HT response, D238A receptor in Xenopus oocytes. Further details: key: Mutants that did not respond in the functional assay are marked as non functional (NF). It counts as cell-based. The method, then: The mouse 5-HT3A cDNA (Q6J1J7) in pcDNA3.1 (for HEK cell transfection) or pGEMHE (for RNA production) was modified by QuikChange site-directed mutagenesis (Agilent Technologies) to create point mutants (verified by sequencing).
Xenopus laevis oocytes from EcoCyte Biosciences (Austin Texas) were injected with 100 pg cRNA (generated with the ThermoFisher mMESSAGE mMACHINE T7 transcription kit) and left in injection media [88 mM NaCl, 2.4 mM NaHCO3, 1 mM KCl, 0.82 mM MgSO4 ·7H20, 5 mM Tris-HCl, 0.33 mM Ca(NO3)2·4H2O, 0.41 mM CaCl2·2H2O, 2.51 mM sodium pyruvate, 0.12 mg/ml theophylline, 0.05 mg/ml gentamicin, pH 7.5] at 16 °C for 24 h. […] The holding potential was −60 mV, using glass microelectrodes with a resistance of approximately 1 MΩ backfilled with 3M KCl.

As to `NCCc1c[nH]c2ccc(O)cc12` [5-HT], the pEC50 entry is “NF”.

The values above are taken from publication PMC8119899, “A Single Mutation in the Outer Lipid-Facing Helix of a Pentameric Ligand-Gated Ion Channel Affects Channel Function Through a Radially-Propagating Mechanism” (Frontiers in Molecular Biosciences, 2021).
